Data from patent US10123998B2, “Kinase modulation, and indications therefor” (Plexxikon Inc., priority 2012, dated 2018).
pIC50: −log10 of the molar value.

How the values were obtained:
[1] = system: Osteoclast precursor cells; experiment: Osteoclast differentiation assay; format: cell-based
Description: Further, an osteoclast differentiation assay is used to assess the efficacy of Fms inhibitors for treating bone disease such as osteoarthritis. On day 0, Osteoclast Medium BulletKit (Lonza catalog # PT-8001, containing Media, FBS, L-Glutamine, PenStrep, RANKL, and M-CSF) media is thawed and the FBS, L-glutamine and PenStrep from the kit is added to 100 mL of Osteoclast Precursor Basal medium to provide the Osteoclast Precursor Growth Medium (OPGM). This is warmed to 37° C. Osteoclast precursor cells (Lonza catalog #2T-110) frozen in cryovial are warmed to 37° C. and transferred to a 50 mL conical tube. The cryovial is rinsed with OPGM and added dropwise to the conical tube of cells with swirling, then the volume is adjusted to 20-30 mL with addition of OPGM. The cells are centrifuged at 200×g for 15 minutes at room temperature and all but approximately 3 mL of supernatant is removed to a new conical tube. The cells are suspended in the remaining supernatant and the volume is adjusted to 10-15 mL with OPGM added dropwise with swirling. The cells are centrifuged at 200×g for 15 minutes at room temperature and all but approximately 1 mL of supernatant is removed. The cells are resuspended in the remaining supernatant, counted, and the volume adjusted with an appropriate amount of OPGM to provide approximately 1×10^5 cells/mL. A 0.1 mL aliquot of cells is added to each well of a 96-well plate. Compound to be tested is prepared in DMSO for plating at a high concentration of 2.5 mM, with 8 point 1:3 serial dilutions. A 1 μL aliquot of each compound dilution is added to a 96 well v-bottom polypropylene plate and 0.124 mL of OPGM is added to the compound. Then 50 μL of the compound in OPGM is added to the osteoclast precursor cells in 96-well plate (providing highest test concentration of 5 μM). RANKL (2 μg) from the BulletKit is reconstituted in 1 mL of OPGM, then vortexed and centrifuged briefly. A 792 μL aliquot of RANKL is added to 6 mL of OPGM and 50 μL is added to low control wells. Then 76.6 μL M-CSF ([…]) from the BulletKit is added to the remaining 5.8 mL of OPGM/RANKL solution (4×RANKL/M-CSF/OPGM). A 50 μL aliquot of this is added to the remaining wells, and the remainder is stored at 4° C. for later use. The plate is incubated at 37° C. for 6 days, then the remaining OPGM/RANKL/M-CSF solution is warmed to 37° C. The remaining approximately 198 μL is combined with 6 mL of OPGM. The media is aspirated from the osteoclast wells and 100 μL of RANKL/OPGM is added to the low controls. The remaining RANKL/OPGM is combined with the approximately 18.5 μL of remaining M-CSF. The remaining 4×RANKL/M-CSF/OPGM from day 0 is diluted to 1× and combined with the freshly prepared solution. A 0.1 mL aliquot of this is added to each osteoclast well and incubated for 37° C. for 1 day. The Acid Phosphatase kit (Cayman Chemical catalog #10008051) is warmed to room temperature. The assay buffer is diluted 5 mL with 45 mL of water. For each plate, two substrate tablets are dissolved in 4.5 mL of the assay buffer, mixing by vortex to break up the tablet. Stop solution is diluted 12 mL with 36 mL of water. In a tissue culture hood, 20 μL of each osteoclast well supernatant is transferred to a 96 well plate. A 30 μL aliquot of the substrate solution is added to each well and incubated at 37° C. for 20 minutes, then added […] stop solution to each well. The absorbance of each well is read at 405 nm on Safire plate reader. The absorbance reading is plotted vs. concentration to provide the IC50 for each compound.

[2] = system: PLP139-151-induced relapsing-remitting EAE; experiment: PLP139-151-induced relapsing-remitting EAE; parameters: species or system SJL mice; conditions: mouse, in vivo
Description: Method: CSF-1R inhibitors as described herein were tested in mouse relapsing-remitting multiple sclerosis (MS) model. […] Female […] mice 6 weeks old were purchased from Harlan and maintained for 1 week prior to beginning the experiment. Mice were randomly assigned into groups of 10 animals (plus the additional mice per group to be used for histology), and primed with 50 μg PLP139-151/CFA on Day 0. On Day 16-20 post disease induction (onset of remission), the experimental compounds in dose groups 2 and 3 were administered daily via gavage to the groups for a period of 3 weeks (with the final treatment on ˜Day 37-41 post disease induction). On Day 10 post disease induction (disease onset) treatment of group 4 began, and continued to the same day as groups 2 and 3 (˜Day 37-41 post disease induction). After administration of the test compounds, the mice were followed until Day 45 to assess clinical disease, delayed type hypersensitivity (DTH), and various in vitro immunological assays. Histological signs of disease at various time points during the disease course were also assessed. […]

pIC50 [1] | Compound | clinical scores after discontinuation of therapy [2]
> 7.00 | COc1ncc(F)cc1CNc1ccc(Cc2c[nH]c3ncc(C#N)cc23)c(F)n1 [Compound P-2193, 3-{2-Fluoro-6-[(5-fluoro-2-methoxy-pyridin-3-ylmethyl)-amino]-pyridin-3-ylmethyl}-1H-pyrrolo[2,3-b]pyridine-5-carbonitrile] | –
– | CCCCCCCCc1ccc(CCC(N)(CO)CO)cc1 [FTY-720] | rapid rebound of clinical scores
